Test results from PubChem BioAssay AID1259375 (The Scripps Research Institute Molecular Screening Center, 2018).
The source made the active and inactive calls. No rule for the calls is given here.

These compounds were tested against Microphthalmia-associated transcription factor (Homo sapiens) (UniProt O75030) (assay: MITF inhibitors by FRET titration, dose response, biochemical, high throughput (AID 1259375;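 also: FRET between CFP-tagged and YFP-tagged MITF protein partners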)). Settings: FRET biochemical assay, MITF inhibition.
Chain of Microphthalmia-associated transcription factor (Homo sapiens) (O75030 whole entry, looked up): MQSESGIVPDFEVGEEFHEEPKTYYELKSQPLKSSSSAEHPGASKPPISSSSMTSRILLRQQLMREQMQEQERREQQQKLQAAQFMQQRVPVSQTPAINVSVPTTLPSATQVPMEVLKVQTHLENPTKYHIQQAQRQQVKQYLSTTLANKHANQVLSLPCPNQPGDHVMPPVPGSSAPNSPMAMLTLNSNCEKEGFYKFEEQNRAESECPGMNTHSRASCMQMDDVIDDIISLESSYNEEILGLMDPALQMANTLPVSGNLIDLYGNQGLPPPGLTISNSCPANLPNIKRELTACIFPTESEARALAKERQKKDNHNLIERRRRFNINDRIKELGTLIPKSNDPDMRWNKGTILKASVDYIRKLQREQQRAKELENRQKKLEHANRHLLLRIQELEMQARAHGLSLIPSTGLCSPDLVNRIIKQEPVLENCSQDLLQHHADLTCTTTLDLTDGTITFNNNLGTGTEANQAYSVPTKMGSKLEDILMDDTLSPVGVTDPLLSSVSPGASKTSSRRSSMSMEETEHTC

| IC50 | Compound |
| --- | --- |
| > 6.11 µM (inactive) | COc1ccc(OC)c(CN2CCN(Cc3ccc(F)cc3)CC2)c1 |
| > 6.48 µM (inactive) | CCOC(=O)C1CCCN(Cc2cccc(Br)c2)C1 (stereo not drawn) |
| > 6.26 µM (inactive) | O=C(NCCc1ccc(O)cc1)c1cccc(-c2cccs2)c1 |
| > 6.48 µM (inactive) | O=C(NCCN1CCOCC1)c1cccc(CN(C(=O)c2nc3ccc(-c4cn[nH]c4)cc3s2)C2CC2)c1 |
| > 6.48 µM (inactive) | O=C(/C=C/c1ccco1)NC(=S)Nc1cccc(C(=O)O)c1 |
| > 6.48 µM (inactive) | CN1C(=O)[C@H]2CN(C(=O)NCc3ccccc3)CCN2C(=O)[C@@H]1Cc1ccccc1 |
| > 6.48 µM (inactive) | CN(C)/C=C/C=C/C(=O)c1cccc(C(=O)/C=C/C=C/N(C)C)c1O |
| > 6.95 µM (inactive) | Cc1ccc(NC(=O)COC(=O)CCC(=O)Nc2sc3c(c2C(N)=O)CCC3)cc1F |
| inactive | COc1ccc2nc(-c3ccco3)c(-c3ccco3)nc2c1 |
| > 6.48 µM (inactive) | CN1CC[C@H](Oc2cc(-c3cn[nH]c3)ccc2NC(=O)OCc2ccccc2)C1 |
| > 6.58 µM (inactive) | O=C(OCCCC(=O)N1CCOCC1)c1cc(-c2ccco2)nc2ccccc12 |
| > 5.41 µM (inactive) | COc1ccc(/C=C2\N=C(c3ccc4c(c3)OCO4)OC2=O)cc1Cl |
| > 6.48 µM (inactive) | Oc1ccc2c(c1)C1CCCC1(N1CCOCC1)O2 (stereo not drawn) |
| > 6.76 µM (inactive) | Cc1ccc(C)n1C(CC(=O)O)c1ccsc1 (stereo not drawn) |
| > 6.48 µM (inactive) | N#C/C(=C/c1ccco1)c1cccc(F)c1 |
| > 6.75 µM (inactive) | NC(=O)n1c(CCC(=O)O)nc2sc3c(c2c1=O)CCC3 |
| > 6.93 µM (inactive) | O=C(NCc1cccnc1)c1ccnc(-c2cccs2)c1 |
| > 6.48 µM (inactive) | O=C(NC1CCCCC1)N1CCN2C(=O)[C@@H]3CCCN3C(=O)[C@H]2C1 |
| > 6.49 µM (inactive) | NC(=O)c1cc(NC(=O)COC(=O)COc2cccc(C(F)(F)F)c2)cc(C(N)=O)c1 |
| > 6.48 µM (inactive) | COc1cc(C=Nc2ccc(N(C)C)cc2)cc(I)c1O |
| > 7.18 µM (inactive) | O=C(O)c1cc(NN=C2CCCC2)ccc1Cl |
| > 7.16 µM (inactive) | O=C(CN1C(=O)NC2(CCCCCC2)C1=O)NC(=O)NCc1ccco1 |
| > 6.48 µM (inactive) | O=C1N[C@H](Cc2ccc(O)cc2)C(=O)N2CCN(C(=O)NC3CCCCC3)C[C@H]12 |
| > 6.6 µM (inactive) | O=C(COC(=O)/C=C/c1ccco1)NCc1ccco1 |

| IC50 | Compound |
| --- | --- |
| > 6.48 µM (inactive) | O=C(/C=C/c1ccco1)Nc1c[nH]c(=O)[nH]c1=O |
| > 6.48 µM (inactive) | CCOC(=O)c1cc(N2C(=O)C3C4C=CC(C4)C3C2=O)ccc1Cl (stereo not drawn) |
| > 6.48 µM (inactive) | COc1c(O)cc(O)cc1O |
| > 6.48 µM (inactive) | COc1ccccc1C1(NC(=O)CCCCC2SCC3NC(=O)NC32)CCCC1 (stereo not drawn) |
| > 6.48 µM (inactive) | Cc1nnc(CNC(=O)c2ccc(-n3cccc3)cc2)o1 |
| > 6.48 µM (inactive) | Cc1ccc(CCC(=O)Nc2ccc(-c3cn4c5c(nnc4n3)CCCC5)cc2)o1 |
| > 6.48 µM (inactive) | COCCCNC(=O)/C(C#N)=C/c1ccc(OCC(=O)O)c(OC)c1 |
| > 6.85 µM (inactive) | O=C(O)CCC(NCc1ccco1)C(=O)O (stereo not drawn) |
| > 6.48 µM (inactive) | Cc1cc(O)c2c(c1)Cc1cccc(O)c1C2=O |
| > 6.48 µM (inactive) | COc1ccc(CCNC(=O)CN2CCN(Cc3nc(-c4ccco4)cs3)CC2)cc1OC |
| > 6.48 µM (inactive) | C[C@H]1NC(=O)[C@H]2CN(C(=O)NC3CCCCC3)CCN2C1=O |
| > 6.48 µM (inactive) | O=C(CCCCC1SCC2NC(=O)NC21)NC1(c2ccc(F)cc2)CCCC1 (stereo not drawn) |
| > 6.48 µM (inactive) | CCC12c3ccccc3C(c3ccccc31)C1C(=O)NC(=O)C12 (stereo not drawn) |
| > 7.06 µM (inactive) | CC(C)NC(=O)/C(C#N)=C/c1ccc(-c2ccc([N+](=O)[O-])cc2Br)o1 |
| > 6.48 µM (inactive) | COc1ccc2c3c(cccc13)C(=O)N(C)C2=O |
| > 6.48 µM (inactive) | Cc1cc(C(=O)O)ccc1-c1ccc(/C=C2/NC(=O)NC2=O)o1 |
| > 10.2 µM (inactive) | CSc1ccc(C(=O)O)s1 |
| > 6.48 µM (inactive) | O=C(Cn1cc(C(=O)c2ccco2)c2ccccc21)NCc1cccnc1 |
| > 6.48 µM (inactive) | C[C@@H](OCc1ccccc1)[C@@H]1NC(=O)[C@H]2CN(C(=O)NCc3ccccc3)CCN2C1=O |
| > 6.48 µM (inactive) | O=C1N[C@@H](Cc2ccccc2)C(=O)N2CCN(C(=O)NCc3ccccc3)C[C@H]12 |
| > 6.48 µM (inactive) | CCCCNCCOc1ccccc1OCC |
| > 5.78 µM (inactive) | CCOc1ccc(CN2CCN(Cc3cccnc3)CC2)cc1 |
| > 6.48 µM (inactive) | O=C(NCc1ccccc1)N1CCN2C(=O)[C@@H]3CSCN3C(=O)[C@H]2C1 |
| > 6.48 µM (inactive) | O=C(O)c1coc(CNC(=O)c2cocc2C(=O)O)c1 |

| IC50 | Compound |
| --- | --- |
| > 6.48 µM (inactive) | O=C(/C=C/c1ccco1)ON1C(=O)c2ccccc2C1=O |
| > 6.48 µM (inactive) | CC(C)NC(=O)c1cccc(NC(=O)Nc2ccc(-c3ncnc4[nH]cc(Cl)c34)cc2)c1 |
| > 6.48 µM (inactive) | C/C(=N\NC(=O)CC1=NNC(=O)C1)c1ccco1 |
| > 6.48 µM (inactive) | Nc1cccc(N2C(=O)c3cc(S(=O)O)cc4c(N)c(S(=O)O)cc(c34)C2=O)c1 |
| > 6.64 µM (inactive) | O=C(NCc1cccnc1)c1cccc(-c2cccs2)c1 |
| > 6.38 µM (inactive) | O=C(NC1CCN(Cc2ccccc2)CC1)c1ccc2nc(-c3cccs3)sc2c1 |
| > 6.48 µM (inactive) | Cc1cc(N=Cc2ccc([N+](=O)[O-])o2)ccc1S(=O)(=O)O |
| > 6.48 µM (inactive) | O=C1c2c(O)cccc2Cc2cccc(O)c21 |
| > 6.48 µM (inactive) | CC(C)N(C)CCOC(=O)/C=C/c1ccco1 |
| > 6.48 µM (inactive) | CCN1CCN(CCOCCOc2ccc(F)cc2)CC1 |
| > 6.48 µM (inactive) | C[C@@H](OCc1ccccc1)[C@@H]1NC(=O)[C@H]2CN(C(=O)Nc3cccc(F)c3)CCN2C1=O |
| > 6.48 µM (inactive) | c1ccc2c(c1)ncn2CC1CCN(Cc2cn3ccccc3n2)CC1 |
| > 5.76 µM (inactive) | COc1cc(OC)c(OC)cc1CN1CCN(Cc2ccc(C)cc2)CC1 |
| > 6.48 µM (inactive) | CC(=O)Nc1ccc(N2C(=O)c3ccccc3C2(O)Cc2ccccc2)cc1 (stereo not drawn) |
| > 6.48 µM (inactive) | O=C(O)c1cc(C(=O)O)cc(-c2ccc(/C=N\n3cnnc3)o2)c1 |
| > 6.31 µM (inactive) | O=C(O)c1cccc2c1C(=O)N(c1ccccc1)C2 |
| > 5.54 µM (inactive) | COc1ccc(OC)c(NC(=O)c2cc3ccc(O)cc3oc2=Nc2ccc(C(=O)O)cc2)c1 |
| > 6.48 µM (inactive) | CC(C)C[C@H]1C(=O)N2CCN(C(=O)NC3CCCCC3)C[C@@H]2C(=O)N1C |
| > 6.48 µM (inactive) | COc1cccc(CN2CCC(CNc3ccc(-c4ccncc4)cc3)C2)c1 (stereo not drawn) |
| > 6.48 µM (inactive) | CC(=O)CC1=C(C(=O)O)N2C(=O)C(N)C2SC1 (stereo not drawn) |
| > 6.48 µM (inactive) | CN(C)CCn1nnnc1SCC1=C(C(=O)O)N2C(=O)[C@@H](NC(=O)Cc3csc(N)n3)[C@H]2SC1 |
| > 6.48 µM (inactive) | O=C(O)c1c2c(nc3ccc(S(=O)(=O)N4CCC(C(=O)O)CC4)cc13)CCC2 |
| > 6.48 µM (inactive) | CNC(=O)COc1cc(-c2cn[nH]c2)ccc1NC(=O)C1COc2ccc(OC)cc2C1 (stereo not drawn) |
| > 6.48 µM (inactive) | COc1ccc2c(c1)CC(C(=O)Nc1ccc(-c3cn[nH]c3)cc1OCC(N)=O)CO2 (stereo not drawn) |

| IC50 | Compound |
| --- | --- |
| > 6.48 µM (inactive) | CCCCCCCCCCCCCCCC(=O)OC[C@H](O)[C@H]1OC(=O)C(=O)C1O (stereo partly drawn) |
| > 7 µM (inactive) | O=C(O)c1cc(S(=O)(=O)Nc2ccc3cn[nH]c3c2)ccc1O |
| > 6.48 µM (inactive) | NC(=O)Cn1cnc2sc3c(c2c1=O)CCC3 |
| > 6.48 µM (inactive) | COc1ccc(C[C@@H]2NC(=O)[C@H]3CN(C(=O)NCc4ccccc4)CCN3C2=O)cc1 |
| 3.84 µM | O=C(OC1(C(F)(F)F)C(=O)Nc2cc3c(cc21)OCO3)c1ccc(Cl)nc1 (stereo not drawn) |
| > 6.83 µM (inactive) | O=P(O)(O)C(O)(CCNC(=S)Nc1ccccc1)P(=O)(O)O |
| > 6.48 µM (inactive) | O=P(O)(O)C(Sc1ccc(Cl)cc1)P(=O)(O)O |
| > 6.48 µM (inactive) | CCc1ccc(NC(=O)CS(=O)CC(=O)NCCCc2ccccc2)cc1 (stereo not drawn) |
| > 6.48 µM (inactive) | CCC[C@@H]1NC(=O)[C@H]2CN(C(=O)NCc3ccccc3)CCN2C1=O |
| > 6.48 µM (inactive) | CC(Oc1ccc(O)cc1)(P(=O)(O)O)P(=O)(O)O |
| > 6.48 µM (inactive) | Cc1[nH][nH]c(=O)c1C(c1ccc([N+](=O)[O-])o1)c1c(C)[nH][nH]c1=O |
| > 6.48 µM (inactive) | Cc1cc(C)n(C(=O)/C=C/c2ccco2)n1 |
| > 6.48 µM (inactive) | C/C(=N\NC(=O)Cc1cc(=O)[nH][nH]1)c1ccco1 |
| > 6.48 µM (inactive) | O=C(NNC(=O)c1cc(-c2ccco2)nc2ccccc12)NC1CCCCC1 |
| > 6.48 µM (inactive) | CCC[C@@H]1NC(=O)[C@H]2CN(C(=O)NC3CCCCC3)CCN2C1=O |
| > 6.71 µM (inactive) | O=C(Nc1ccc(Oc2ccccc2)cc1)c1ccnc(-c2cccs2)c1 |
| > 6.48 µM (inactive) | C/C(=N\Nc1ccc(S(=O)(=O)O)cc1)c1cccc(Br)c1 |
| > 6.25 µM (inactive) | CC1CCC(N2CCN(Cc3ccco3)CC2)CC1 (stereo not drawn) |
| > 6.48 µM (inactive) | N#Cc1c(-c2ccco2)cc(-c2ccco2)nc1N |
| > 6.48 µM (inactive) | c1coc(CNc2ccc3ncc(-c4ccco4)n3n2)c1 |
| > 6.48 µM (inactive) | COC(=O)CSc1nnc(-c2ccco2)n1Cc1ccco1 |
| > 6.48 µM (inactive) | C[C@@H]1NC(=O)[C@H]2CN(C(=O)NCc3ccccc3)CCN2C1=O |
| > 6.48 µM (inactive) | CC(C)(C)c1ccc(OCCn2cncn2)c(Cl)c1 |

| Compound | IC50 |
| --- | --- |
| CCOC(=O)C1C2NC(=S)N(c3cccc(Cl)c3)C1(C)Oc1c(OC)cccc12 (stereo not drawn) | > 5.09 µM (inactive) |
| CCOC(=O)C1C2NC(=S)N(c3ccc(CC)cc3)C1(C)Oc1c(OCC)cccc12 (stereo not drawn) | > 5.53 µM (inactive) |
| Cc1cccc(OCC(=O)N2CCN(Cc3cccc(Br)c3)CC2)c1 | > 6.48 µM (inactive) |
